Laboratory results published in paper PMC10094136, “Neurog1-Derived Peptides RMNE1 and DualPep-Shine Penetrate the Skin and Inhibit Melanin Synthesis by Regulating MITF Transcription” (International Journal of Molecular Sciences, 2023).
Where a SMILES comes first, the peptide text is derived from it.

Experiments:
[1] = test system: B16F10 cells; test: Localization of penetrated peptide by confocal microscopy; type: cell-based; conditions: B16F10, FITC-conjugated peptide, 2 h, Hoechst 33342 nucleus staining
Method: Figure 3 DualPep-Shine regulates the expression of melanogenic genes and inhibits the promoter activity of MITF-M. (A) B16F10 cells were treated with various concentrations of DualPep-Shine for 72 h. Melanin contents were determined at OD 405 nm. (B) DualPep-Shine was treated with α-MSH for 24 h, and whole-cell lysates were subjected to Western blotting. Indicated antibodies were used to analyze melanogenic proteins. (C) mRNA levels of MITF, Tyr, TRP1, and TRP2 were analyzed using quantitative polymerase chain reaction (qPCR) after treatment with DualPep-Shine for 12 h. The gene expression was normalized with β-actin. (D) FITC-conjugated DualPep-Shine was treated for 2 h on B16F10 cells, and its localization was visualized using confocal microscopy. Hoechst 33342 was used for nucleus staining. Bar = 10 μm. […] The results are presented as mean ± SD, and statistical significance was analyzed with Student’s t-test (** p < 0.01, *** p < 0.001).
B16F10 cells were seeded in a 24-well plate and treated with 2.5 μM of FITC conjugated TAT, RMNE1, or DualPep-Shine for 2 h. […] Penetrated peptides were evaluated via flow cytometry by measuring FITC levels. […] The cells were washed again with PBS five times, mounted on a slide glass using gel/mount solution (Biomeda, Foster City, CA, USA), and the penetrated peptides were visualized using a fluorescence microscope. […]

[2] = test system: HaCaT cells; test: Cell viability CCK-8 assay, HaCaT; type: cell-based; conditions: up to highest concentration, 72 h (legend; method says 24 h), CCK8
Method: (§1) (A) B16F10 and HaCaT cells were treated with the indicated concentration of DualPep-Shine for 72 h, and relative cell viability was measured using Cell Counting Kit 8 (CCK8) assay. Doxorubicin was used for positive control. (B) Phorbol 12-myristate 13-acetate (PMA)-differentiated THP-1 cells were treated with different concentrations of DualPep-Shine for 24 h. TNF-α from supernatants was measured using the enzyme-linked immunosorbent assay (ELISA). (C) DualPep-Shine was incubated with indicated temperature conditions for 45 days. B16F10 cells were treated with different concentrations for 72 h, and melanin contents were measured at OD 405 nm. The results are presented as mean ± SD, and statistical significance was analyzed with Student’s t-test (NS: not significant, *** p < 0.001).
(§2) Cell viability was measured using a CCK-8 assay (Dojindo, Tokyo, Japan). HaCaT and B16F10 cells were cultured in a 96-well plate at a 6 × 10^3 cells/well and incubated in a complete medium at 37 °C with 5% CO2 overnight. Each cell type was treated with different concentrations of peptides for 24 h. After removing the medium, CCK-8 solution was added in a dark room at 37 °C. Absorbance was measured at 450 nm using a microplate reader.

[3] = test system: B16F10 cells; test: Cell viability CCK-8 assay, B16F10; type: cell-based; conditions: B16F10, up to highest concentration, 72 h (legend; method says 24 h), CCK8
Method: as §1, §2

[4] = test system: THP-1 cells; test: TNF-α secretion ELISA in PMA-differentiated THP-1 cells (immunogenicity); type: cell-based; conditions: PMA-differentiated THP-1, up to 100 μM, 24 h
Method: as §1

[5] = Storage stability of peptide, read out as anti-melanin activity in B16F10 cells; type: physicochemical; conditions: peptide stored at −20 °C, 25 °C and 37 °C for 45 days; then B16F10 72 h, melanin at OD 405 nm
Method: as §1
B16F10 cells (1 × 10^5) were seeded in a 24-well plate and incubated for 16 h. The cells were treated with α-MSH (Sigma-Aldrich, Darmstadt, Germany) and peptides for 72 h. The cells were incubated at 37 °C in 5% CO2. […] Then, melanin levels were determined by measuring the absorbance at 405 nm using a microplate reader. […] B16F10 cells were then treated with different concentrations of peptides, and melanin contents were measured to check the stability of DualPep-Shine.

SMILES: C[C@@H](O)[C@H](NC(=O)[C@H](CCCNC(=N)N)NC(=O)CNC(=O)[C@H](CCCNC(=N)N)NC(=O)[C@H](CCCNC(=N)N)NC(=O)[C@H](CCCNC(=N)N)NC(=O)[C@H](CCCNC(=N)N)NC(=O)[C@H](CCCNC(=N)N)NC(=O)[C@H](CCC(=O)O)NC(=O)[C@H](CCC(N)=O)NC(=O)[C@H](CCC(=O)O)NC(=O)[C@@H](N)CC(=O)O)C(=O)N[C@@H](CCCNC(=N)N)C(=O)O [DualPep-Shine] (H-DEQERRRRRGRTR-OH)
- Intracellular localization [1]: mainly localized in the nucleus
- Cell viability [2]: not affected
- Cell viability [3]: not affected
- TNF-α secretion (immunogenicity) [4]: did not induce tumor necrosis factor α (TNF-α) secretion
- Anti-pigmentation activity after pre-incubation (stability) [5]: maintained
